Assay results: patent US20170112714A1, “METHOD FOR ALLEVIATING OR TREATING ANAPHYLAXIS” (Korea Bio Medical Science Institute, priority 2015, published 2017)

Experiments:
Format in all cases: in vivo
HIF-1α = HIF-1α protein levels in brain by Western blotting; conditions: oral ketotifen in compound 48/80 mice, p<0.05; FIG. 3 (protein and mRNA)
Method: (§1) Mice were given an intraperitoneal (i.p.) injection of compound 48/80 (6.5 mg/kg). The period used to observe mortality was based on the results of a pretest during which mice died within 30 min of administration. […] Mortality was monitored for 40 min post-injection. […] Three independent experiments were performed (n=15/group).
Western blot analysis was performed on brain tissue extracts, as previously described in (Semenza GL: Hypoxia-inducible factor 1: oxygen homeostasis and disease pathophysiology. Trends Mol Med 2001; 7:345-350).

mice = test: Compound 48/80-induced systemic anaphylaxis, mortality; conditions: ketotifen orally 1 mg/kg 1 h before compound 48/80 (6.5 mg/kg i.p.); vs compound 48/80 alone, p<0.01
Method: The original stock of male ICR (4 weeks old) was purchased from the Dae-Han Experimental Animal Center (Eumsung, Chungbuk, Republic of Korea). Animal care and experimental procedures used were approved by the Animal Care Committee of Kyung Hee University [KHUASP (SE)-12-019].
as §1
Jajinmori-jangdan and Hwimori-jangdan (rhythmic cycles) of Buk music were played by Kyung-Ja Ko. The playing conditions were as follows: Jajinmori-jangdan rhythmic cycle of twelve beats, […] (12/8 metre, ? =96 to 144), in an allegro moderated tempo and Hwimori-jangdan rhythmic cycle of 4 beats, 2+2 (4/4 metre, ? =208 to 230), in a presto tempo. The sound of a Buk is a match for the frequency of a baritone voice (139.9 to 355.2 Hz). […] Mice were exposed to Buk music or white noise for 5 min. All experiments were carried out in an environment free of other sounds. Buk music was recorded and copied using a MP3 player to ensure precisely the same music was played for mice in all treatment groups.

ER-β mRNA = ER-β mRNA levels in brain by quantitative real-time PCR; conditions: ketotifen in compound 48/80 administered mice, p<0.05
TNF-α = TNF-α protein levels in brain by ELISA; conditions: ketotifen in compound 48/80 mice
Method: as §1
Cytokines levels in serum and brain were analyzed by ELISA, as described previously. Cytokine levels in brain were divided according to the total protein levels, which were estimated using a BCA protein assay kit (Pierce, Rockford, Ill., USA).

VEGF mRNA = VEGF mRNA levels in brain by quantitative real-time PCR; conditions: ketotifen in compound 48/80 mice, p<0.05
Method: as §1
Quantitative real-time PCR was performed using SYBR Green master mix and mRNA levels were analyzed using an ABI StepOne real time PCR System (Applied Biosystems, Foster City, Calif., USA). Primer sequences for the reference gene GAPDH and genes of interest were as follows: GAPDH (5′ […] 3′, SEQ ID NO.1; 5′ […] 3′, SEQ ID NO.2); HIF-1α (5′ […] 3′, SEQ ID NO.3; 5′ […] 3′, SEQ ID NO.4); VEGF (5′ […] 3′, SEQ ID NO.5; 5′ […] 3′, SEQ ID NO.6). Typical profile times used were as follows; initial step 95° C. for 10 min followed by a second step at 95° C. for 15 s and 60° C. for 30 s for 40 cycles. Levels of target mRNAs were normalized versus GAPDH. Data were analyzed using the ΔΔCT method.

Question: Which “HIF-1α levels in brain” value (HIF-1α) does the source give for CN1CCC(=C2c3ccccc3CC(=O)c3sccc32)CC1 [ketotifen] here?
Answer: significantly reduced

Question: And the “mortality induced by compound 48/80” value (mice)?
Answer: reduced mortality

Question: What about the “ER-β mRNA levels in brain” value (ER-β mRNA) of the same molecule?
Answer: significantly increased

Question: And the “TNF-α protein levels in brain” value (TNF-α)?
Answer: significantly reduced

Question: What about the “brain VEGF mRNA levels” value (VEGF mRNA) of the same molecule?
Answer: significantly reduced
